Source: PubChem BioAssay (NCI)
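The compound was tested at five concentrations on cells cultured in 96-well plates, with a 48-hour exposure period. GI50 marks 50% less growth. TGI marks complete inhibition of growth.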

Experiments:
Experiment in all cases: NCI anticancer screen, dose series, 48 h
OVCAR-3 ovarian = tested on: OVCAR-3 ovarian
BT-549 breast = tested on: BT-549 breast
MDA-MB-231 breast = tested on: MDA-MB-231 breast
U251 CNS = tested on: U251 CNS
SK-MEL-2 melanoma = tested on: SK-MEL-2 melanoma
A549 NSCLC = tested on: A549 NSCLC
RPMI-8226 leukemia = tested on: RPMI-8226 leukemia
MOLT-4 leukemia = tested on: MOLT-4 leukemia
SF-539 CNS = tested on: SF-539 CNS
A498 renal = tested on: A498 renal
SF-268 CNS = tested on: SF-268 CNS
NCI-H460 lung = tested on: NCI-H460 lung
T-47D breast = tested on: T-47D breast
SW-620 colon = tested on: SW-620 colon
OVCAR-4 ovarian = tested on: OVCAR-4 ovarian
SK-MEL-28 melanoma = tested on: SK-MEL-28 melanoma
SK-MEL-5 melanoma = tested on: SK-MEL-5 melanoma
MCF7 breast = tested on: MCF7 breast
NCI-H23 lung = tested on: NCI-H23 lung
SK-OV-3 ovarian = tested on: SK-OV-3 ovarian
SF-295 CNS = tested on: SF-295 CNS
HCC-2998 colon = tested on: HCC-2998 colon
LOX IMVI melanoma = tested on: LOX IMVI melanoma
TK-10 renal = tested on: TK-10 renal
UO-31 renal = tested on: UO-31 renal
ACHN renal = tested on: ACHN renal
HOP-92 NSCLC = tested on: HOP-92 NSCLC
SR leukemia = tested on: SR leukemia
HL-60(TB) leukemia = tested on: HL-60(TB) leukemia
CCRF-CEM leukemia = tested on: CCRF-CEM leukemia
OVCAR-5 ovarian = tested on: OVCAR-5 ovarian
NCI-H522 lung = tested on: NCI-H522 lung
HCT-15 colon = tested on: HCT-15 colon
HOP-62 NSCLC = tested on: HOP-62 NSCLC
UACC-257 melanoma = tested on: UACC-257 melanoma
RXF 393 renal = tested on: RXF 393 renal
NCI/ADR-RES ovarian = tested on: NCI/ADR-RES ovarian
SN12C renal = tested on: SN12C renal
HT29 colon = tested on: HT29 colon
OVCAR-8 ovarian = tested on: OVCAR-8 ovarian
PC-3 prostate = tested on: PC-3 prostate
NCI-H226 lung = tested on: NCI-H226 lung
M14 melanoma = tested on: M14 melanoma
CAKI-1 renal = tested on: CAKI-1 renal
EKVX NSCLC = tested on: EKVX NSCLC
UACC-62 melanoma = tested on: UACC-62 melanoma
786-0 renal = tested on: 786-0 renal
HS 578T breast = tested on: HS 578T breast
HCT-116 colon = tested on: HCT-116 colon
IGROV1 ovarian = tested on: IGROV1 ovarian
SNB-19 CNS = tested on: SNB-19 CNS
DU-145 prostate = tested on: DU-145 prostate
SNB-75 CNS = tested on: SNB-75 CNS
K-562 leukemia = tested on: K-562 leukemia
COLO 205 colon = tested on: COLO 205 colon
MDA-MB-435 = tested on: MDA-MB-435
KM12 colon = tested on: KM12 colon
MALME-3M melanoma = tested on: MALME-3M melanoma

Q: Which results are given for `COc1cc(OC)cc(C2C(C#N)=C(N)Oc3c2ccc2ccc(O)cc32)c1` (stereo not given)?
A: GI50 (OVCAR-3 ovarian): < 10 nM; TGI (OVCAR-3 ovarian): < 0.01 µM; GI50 (BT-549 breast): < 10 nM; TGI (BT-549 breast): 11.5 µM; GI50 (MDA-MB-231 breast): < 10 nM; TGI (MDA-MB-231 breast): 5.14 µM; GI50 (U251 CNS): < 10 nM; TGI (U251 CNS): 1890 nM; GI50 (SK-MEL-2 melanoma): 587 nM; TGI (SK-MEL-2 melanoma): 7.37 µM; GI50 (A549 NSCLC): < 10 nM; TGI (A549 NSCLC): 9.97 µM; GI50 (RPMI-8226 leukemia): < 10 nM; TGI (RPMI-8226 leukemia): 3.28 µM; GI50 (MOLT-4 leukemia): < 10 nM; TGI (MOLT-4 leukemia): 12.8 µM; GI50 (SF-539 CNS): < 10 nM; TGI (SF-539 CNS): < 0.01 µM; GI50 (A498 renal): < 10 nM; TGI (A498 renal): 2640 nM; GI50 (SF-268 CNS): < 10 nM; TGI (SF-268 CNS): 6.87 µM; GI50 (NCI-H460 lung): < 10 nM; TGI (NCI-H460 lung): 1130 nM; GI50 (T-47D breast): 2290 nM; TGI (T-47D breast): 22.8 µM; GI50 (SW-620 colon): < 10 nM; TGI (SW-620 colon): 14.4 µM; TGI (OVCAR-4 ovarian): 15.6 µM; GI50 (SK-MEL-28 melanoma): 2270 nM; TGI (SK-MEL-28 melanoma): 9.97 µM; GI50 (SK-MEL-5 melanoma): < 10 nM; TGI (SK-MEL-5 melanoma): < 0.01 µM; GI50 (MCF7 breast): < 10 nM; TGI (MCF7 breast): 11.3 µM; GI50 (NCI-H23 lung): < 10 nM; TGI (NCI-H23 lung): 4.74 µM; GI50 (SK-OV-3 ovarian): < 10 nM; TGI (SK-OV-3 ovarian): 11.4 µM; GI50 (SF-295 CNS): < 10 nM; TGI (SF-295 CNS): 2670 nM; GI50 (HCC-2998 colon): < 16.6 nM; TGI (HCC-2998 colon): 530 nM; GI50 (LOX IMVI melanoma): < 10 nM; TGI (LOX IMVI melanoma): 1630 nM; GI50 (TK-10 renal): 3.36 µM; TGI (TK-10 renal): 19.6 µM; GI50 (UO-31 renal): < 11.2 nM; TGI (UO-31 renal): 6.62 µM; GI50 (ACHN renal): < 10 nM; TGI (ACHN renal): 6.58 µM; GI50 (HOP-92 NSCLC): < 10 nM; TGI (HOP-92 NSCLC): 2950 nM; GI50 (SR leukemia): < 10 nM; TGI (SR leukemia): 27.1 µM; GI50 (HL-60(TB) leukemia): < 10 nM; TGI (HL-60(TB) leukemia): < 0.01 µM; GI50 (CCRF-CEM leukemia): < 10 nM; TGI (CCRF-CEM leukemia): 14 µM; GI50 (OVCAR-5 ovarian): 52.1 nM; TGI (OVCAR-5 ovarian): 12 µM; GI50 (NCI-H522 lung): < 10 nM; GI50 (HCT-15 colon): < 10 nM; TGI (HCT-15 colon): 1930 nM; GI50 (HOP-62 NSCLC): < 10 nM; TGI (HOP-62 NSCLC): 5.75 µM; GI50 (UACC-257 melanoma): 2380 nM; TGI (UACC-257 melanoma): 32.5 µM; GI50 (RXF 393 renal): < 10 nM; TGI (RXF 393 renal): 4.49 µM; GI50 (NCI/ADR-RES ovarian): < 10 nM; GI50 (SN12C renal): < 10 nM; TGI (SN12C renal): 5.89 µM; GI50 (HT29 colon): 88 nM; TGI (HT29 colon): 5.83 µM; GI50 (OVCAR-8 ovarian): < 10 nM; TGI (OVCAR-8 ovarian): 8.29 µM; GI50 (PC-3 prostate): < 10 nM; TGI (PC-3 prostate): 13.9 µM; GI50 (NCI-H226 lung): < 10 nM; GI50 (M14 melanoma): < 10 nM; TGI (M14 melanoma): 5.25 µM; GI50 (CAKI-1 renal): < 10 nM; TGI (CAKI-1 renal): 6.08 µM; GI50 (EKVX NSCLC): < 10 nM; TGI (EKVX NSCLC): 6.66 µM; GI50 (UACC-62 melanoma): 1410 nM; TGI (UACC-62 melanoma): 4.42 µM; GI50 (786-0 renal): < 12.5 nM; TGI (786-0 renal): 9.23 µM; GI50 (HS 578T breast): < 10 nM; TGI (HS 578T breast): 9.95 µM; GI50 (HCT-116 colon): < 10 nM; TGI (HCT-116 colon): 3.88 µM; GI50 (IGROV1 ovarian): < 10 nM; TGI (IGROV1 ovarian): 6.61 µM; GI50 (SNB-19 CNS): < 10 nM; TGI (SNB-19 CNS): 11.6 µM; GI50 (DU-145 prostate): < 10 nM; TGI (DU-145 prostate): 3.84 µM; GI50 (SNB-75 CNS): < 10 nM; TGI (SNB-75 CNS): 6.54 µM; GI50 (K-562 leukemia): < 10 nM; TGI (K-562 leukemia): > 31.7 µM; GI50 (COLO 205 colon): 155 nM; TGI (COLO 205 colon): 1030 nM; GI50 (MDA-MB-435): < 10 nM; TGI (MDA-MB-435): < 0.01 µM; GI50 (KM12 colon): < 10 nM; TGI (KM12 colon): 1340 nM

Q: What does the source list for `O=c1n(-c2ccccc2)c(=O)n2n1C1C=CC2CCCCCC1`?
A: TGI (OVCAR-3 ovarian): > 100 µM; TGI (BT-549 breast): > 100 µM; TGI (MDA-MB-231 breast): > 100 µM; TGI (U251 CNS): > 100000 nM; TGI (SK-MEL-2 melanoma): > 100 µM; TGI (A549 NSCLC): > 100 µM; TGI (RPMI-8226 leukemia): > 100 µM; TGI (MOLT-4 leukemia): > 100 µM; TGI (SF-539 CNS): > 100 µM; TGI (SF-268 CNS): > 100 µM; TGI (NCI-H460 lung): > 100000 nM; TGI (MALME-3M melanoma): > 100 µM; TGI (T-47D breast): > 100 µM; TGI (SW-620 colon): > 100 µM; TGI (OVCAR-4 ovarian): > 100 µM; TGI (SK-MEL-28 melanoma): > 100 µM; TGI (SK-MEL-5 melanoma): > 100 µM; TGI (MCF7 breast): > 100 µM; TGI (NCI-H23 lung): > 100 µM; TGI (SK-OV-3 ovarian): > 100 µM; TGI (SF-295 CNS): > 100000 nM; TGI (HCC-2998 colon): > 100000 nM; TGI (LOX IMVI melanoma): > 100000 nM; TGI (TK-10 renal): > 100 µM; TGI (UO-31 renal): > 100 µM; TGI (ACHN renal): > 100 µM; TGI (HOP-92 NSCLC): > 100000 nM; TGI (SR leukemia): > 100 µM; TGI (HL-60(TB) leukemia): > 100 µM; TGI (CCRF-CEM leukemia): > 100 µM; TGI (OVCAR-5 ovarian): > 100 µM; TGI (NCI-H522 lung): > 100 µM; TGI (HCT-15 colon): > 100000 nM; TGI (HOP-62 NSCLC): > 100 µM; TGI (UACC-257 melanoma): > 100 µM; TGI (NCI/ADR-RES ovarian): > 100 µM; TGI (SN12C renal): > 100 µM; TGI (HT29 colon): > 100 µM; TGI (OVCAR-8 ovarian): > 100 µM; TGI (PC-3 prostate): > 100 µM; TGI (NCI-H226 lung): > 100 µM; TGI (M14 melanoma): > 100 µM; TGI (CAKI-1 renal): > 100 µM; TGI (EKVX NSCLC): > 100 µM; TGI (UACC-62 melanoma): > 100 µM; TGI (786-0 renal): > 100 µM; TGI (HS 578T breast): > 100 µM; TGI (HCT-116 colon): > 100 µM; TGI (IGROV1 ovarian): > 100 µM; TGI (SNB-19 CNS): > 100 µM; TGI (DU-145 prostate): > 100 µM; TGI (SNB-75 CNS): > 100 µM; TGI (COLO 205 colon): > 100000 nM; TGI (MDA-MB-435): > 100 µM; TGI (KM12 colon): > 100000 nM
